The values that follow come from patent US7018396B2, “Method of treating acne” (New England Medical Center Hospitals, Inc., priority 2001, dated 2006).

The data set deals with sebaceous glands present in skin of the hamster ear. Description: Hamster ear model: topical uptake of ICG into sebaceous glands (white light and fluorescence micrographs). It counts as in vivo. The conditions noted are these: 24 hours, 810 nm illumination, 840 nm bandpass filter. Here is the method:
A chromophore is considered “selectively introduced” to sebaceous glands according to the invention if greater than or equal to about 90% of the chromophore remaining associated with the skin after removal of excess chromophore preparation from the skin surface is observed in sebaceous glands. The proportion of a particular chromophore localized to sebaceous glands from a particular chromophore preparation (e.g., chromophore in oil or chromophore in liposomes or lipid suspension) is determined using an appropriate animal model, such as the hamster ear model described herein. Hamsters are known to have sebaceous glands in their ears. These glands are typically on the order of 200 μm in diameter, making them somewhat larger than typical sebaceous glands in humans. Nonetheless, the hamster ear is a convenient and instructive model for human skin and sebaceous glands.
For example, the non-lipophilic chromophore indocyanine green was introduced to sebaceous glands present in skin of the hamster ear according to the following method. The lipid chromophore suspension was topically applied to hamster ears and allowed to travel into the pores and sebaceous glands for 24 hours. After this time, the hamsters were euthanized and their ears were examined for evidence of ICG in the sebaceous glands. […] ICG fluorescence (840 nm) is stimulated by irradiation with 810 nm light. […]

On to `CC1(C)C(/C=C/C=C/C=C/C=C2\N(CCCCS(=O)(=O)O)c3ccc4ccccc4c3C2(C)C)=[N+](CCCCS(=O)(=O)[O-])c2ccc3ccccc3c21` [indocyanine green], for which the “localization of chromophore in skin” value is “present in the sebaceous glands but not in the tissue between the glands”.
